This data set relates to rodent carcinogenicity bioassays, tumor incidence. Briefly: CCRIS carcinogenicity studies. As to conditions: Dose: 0, Dose: 0. Summed up: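 Archive of carcinogenicity, mutagenicity, tumor promotion and tumor inhibition results drawn from journals, NCI reports and other sources, expert-reviewed; covers 1985-2011 and is no longer updated.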

From PubChem BioAssay AID1259411 (Chemical Carcinogenesis Research Information System (CCRIS), 2018) come the findings set out here.

Active and inactive are the calls of the source. The rule behind the calls is not given here.

For the molecule `C=COC(C)=O`, the carcinogen call by setting is: (Species: MOUSE, Strain/Sex: CRL:CD-1(ICR)BR/FEMALE, Route: INHALATION, 50, 200, 600 PPM 6 HR/D 5 D/WK FOR 104 WK (STUDY DURATION: 104 WK), 50, 200, 600 PPM 6 HR/D 5 D/WK FOR 104 WK (STUDY DURATION: 104 WK)) “inactive; negative”; (Species: MOUSE, Strain/Sex: CRL:CD-1(ICR)BR/MALE, Route: INHALATION, 50, 200, 600 PPM 6 HR/D 5 D/WK FOR 104 WK (STUDY DURATION: 104 WK), 50, 200, 600 PPM 6 HR/D 5 D/WK FOR 104 WK (STUDY DURATION: 104 WK)) “inactive; negative”; (Species: MOUSE, Strain/Sex: SWISS/FEMALE, Route: ORAL, 1000, 5000 PPM IN DRINKING WATER ADMINISTERED FOR DURATION OF STUDY TO OFFSPRING OF MOTHERS EXPOSED TO THE SAME DOSES, 1000, 5000 PPM IN DRINKING WATER ADMINISTERED FOR DURATION OF STUDY TO OFFSPRING OF MOTHERS EXPOSED TO THE SAME DOSES, Tumor Site: Type of Lesion: ZYMBAL GLAND: CARCINOMA, ORAL CAVITY: SQUAMOUS CELL CARCINOMA, TONGUE: SQUAMOUS CELL CARCINOMA, ESOPHAGUS: SQUAMOUS CELL, Tumor Site: Type of Lesion: ZYMBAL GLAND: CARCINOMA, ORAL CAVITY: SQUAMOUS CELL CARCINOMA, TONGUE: SQUAMOUS CELL CARCINOMA, ESOPHAGUS: SQUAMOUS CELL) “active; positive”; (Species: MOUSE, Strain/Sex: SWISS/FEMALE, Route: ORAL, 1000, 5000 PPM IN DRINKING WATER FOR DURATION OF STUDY (STUDY DURATION:LIFE SPAN), 1000, 5000 PPM IN DRINKING WATER FOR DURATION OF STUDY (STUDY DURATION:LIFE SPAN), Tumor Site: Type of Lesion: TONGUE: SQUAMOUS CELL CARCINOMA, ESOPHAGUS: SQUAMOUS CELL CARCINOMA, LUNG: ADENOMA OR ADENOCARCINOMA, UTERUS: TUMOR, Tumor Site: Type of Lesion: TONGUE: SQUAMOUS CELL CARCINOMA, ESOPHAGUS: SQUAMOUS CELL CARCINOMA, LUNG: ADENOMA OR ADENOCARCINOMA, UTERUS: TUMOR) “active; positive”; (Species: MOUSE, Strain/Sex: SWISS/MALE, Route: ORAL, 1000, 5000 PPM IN DRINKING WATER FOR DURATION OF STUDY (STUDY DURATION: LIFE SPAN), 1000, 5000 PPM IN DRINKING WATER FOR DURATION OF STUDY (STUDY DURATION: LIFE SPAN)) “inactive; negative”; (Species: RAT, Strain/Sex: CRL:CD(SD)BR/FEMALE, Route: INHALATION, 50, 200, 600 PPM 6 HR/D 5 D/WK FOR 104 WK (STUDY DURATION: 104 WK), 50, 200, 600 PPM 6 HR/D 5 D/WK FOR 104 WK (STUDY DURATION: 104 WK)) “inactive; negative”. For the same molecule, the carcinogen call is “inactive; negative” (Species: RAT, Strain/Sex: CRL:CD(SD)BR/FEMALE, Route: ORAL, 200, 1000, 5000 PPM IN DRINKING WATER FOR 104 WK ADMINISTERED TO OFFSPRING OF RATS ADMINISTERED THE SAME DOSES BEGINN, 200, 1000, 5000 PPM IN DRINKING WATER FOR 104 WK ADMINISTERED TO OFFSPRING OF RATS ADMINISTERED THE SAME DOSES BEGINN); “active; positive” (Species: RAT, Strain/Sex: CRL:CD(SD)BR/MALE, Route: INHALATION, 50, 200, 600 PPM 6 HR/D 5 D/WK FOR 104 WK (STUDY DURATION: 104 WK), 50, 200, 600 PPM 6 HR/D 5 D/WK FOR 104 WK (STUDY DURATION: 104 WK), Tumor Site: Type of Lesion: NASAL CAVITY: TUMOR); “inactive; negative” (Species: RAT, Strain/Sex: CRL:CD(SD)BR/MALE, Route: ORAL, 200, 1000, 5000 PPM IN DRINKING WATER FOR 104 WK ADMINISTERED TO OFFSPRING OF RATS ADMINISTERED THE SAME DOSES BEGINN, 200, 1000, 5000 PPM IN DRINKING WATER FOR 104 WK ADMINISTERED TO OFFSPRING OF RATS ADMINISTERED THE SAME DOSES BEGINN); “active; positive” (Species: RAT, Strain/Sex: F344/FEMALE, Route: ORAL, 1000, 2500 MG/L IN DRINKING WATER 5 D/WK FOR 100 WK (STUDY DURATION: 130 WK), 1000, 2500 MG/L IN DRINKING WATER 5 D/WK FOR 100 WK (STUDY DURATION: 130 WK), Tumor Site: Type of Lesion: UTERUS: CARCINOMA, THYROID: C-CELL ADENOMA, LIVER: NEOPLASTIC NODULE, Tumor Site: Type of Lesion: UTERUS: CARCINOMA, THYROID: C-CELL ADENOMA, LIVER: NEOPLASTIC NODULE); “inactive; negative” (Species: RAT, Strain/Sex: F344/MALE, Route: ORAL, 1000, 2500 MG/L IN DRINKING WATER 5 D/WK FOR 100 WK (STUDY DURATION: 130 WK), 1000, 2500 MG/L IN DRINKING WATER 5 D/WK FOR 100 WK (STUDY DURATION: 130 WK)); “active; positive” (Species: SWISS/MALE, Strain/Sex: ORAL, Route: ORAL, 1000, 5000 PPM IN DRINKING WATER ADMINISTERED FOR DURATION OF STUDY TO OFFSPRING OF MOTHERS EXPOSED TO THE SAME DOSES, 1000, 5000 PPM IN DRINKING WATER ADMINISTERED FOR DURATION OF STUDY TO OFFSPRING OF MOTHERS EXPOSED TO THE SAME DOSES, Tumor Site: Type of Lesion: ZYMBAL GLAND: CARCINOMA, ORAL CAVITY: SQUAMOUS CELL CARCINOMA, TONGUE: SQUAMOUS CELL CARCINOMA, ESOPHAGUS: SQUAMOUS CELL, Tumor Site: Type of Lesion: ZYMBAL GLAND: CARCINOMA, ORAL CAVITY: SQUAMOUS CELL CARCINOMA, TONGUE: SQUAMOUS CELL CARCINOMA, ESOPHAGUS: SQUAMOUS CELL).
